Measurements as given in paper PMC11645656, “MRGPRX4 mediates phospho-drug associated pruritus in a humanized mouse model” (Science translational medicine, 2024).
“And” between values parts separate entries of the source, which are not always exact repeats. Equal entries are not always repeated.

Experiments:
MRGPRX4 (S83) = target: T1, MRGPRX4 (S83) (Homo sapiens, UniProt Q96LA9, L83S); test: EC50 determination, intracellular calcium mobilization in MRGPRX4 stably expressed HEK293 cells (FLIPR Calcium 5, Flexstation-3); type: cell-based; set-up: Fig. 1D dose-response, calcium mobilization response (individual replicate) / calcium mobilization response (Fig. 1D dose-response raw data): unit not given here; conditions: individual replicate values, listed as Phenytoin Sodium; for Fig. 1D dose-response, calcium response at Concentration (M): phenytoin series
T1 construct: expressed in transfected cells
T1 sequence (Q96LA9 whole entry L83S): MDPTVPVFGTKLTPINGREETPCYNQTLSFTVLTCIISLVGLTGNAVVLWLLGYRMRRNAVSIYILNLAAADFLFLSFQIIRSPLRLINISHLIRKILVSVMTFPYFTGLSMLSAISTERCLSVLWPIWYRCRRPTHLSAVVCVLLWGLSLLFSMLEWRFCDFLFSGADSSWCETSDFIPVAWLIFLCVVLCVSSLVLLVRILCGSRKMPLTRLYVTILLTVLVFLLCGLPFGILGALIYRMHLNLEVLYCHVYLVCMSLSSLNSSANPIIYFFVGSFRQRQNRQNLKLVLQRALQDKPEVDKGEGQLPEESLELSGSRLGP
Procedure, shortened: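 EC50 came from a four-parameter logistic fit to averaged triplicate responses, each response being maximum post-stimulation signal less baseline. Intracellular calcium was monitored with Calcium 5 dye in HBSS with 20 mM HEPES, pH 7.4, after 1 h dye loading at 37 °C, using stably transfected HEK293 cells and parental controls.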

[1] = tested on: NP2-X4+ mice (MRGPRX4 in Mrgpra3+ NP2 sensory neurons); test: Itch behavioral study (scratching bouts after subcutaneous nape injection) in NP2-X4+ mice; type: in vivo, mouse
NP2-WT mice = test: Itch behavioral study (scratching bouts after subcutaneous nape injection) in littermate control NP2-WT mice; type: in vivo; conditions: 30 min after injection of 50 μl 10 mM into the nape, each cell one mouse
Excerpt: Fig. 2. Phosphate monoester prodrugs induce itch in NP2-MRGPRX4+ mice through activating NP2 primary sensory neurons. (A) Mating strategy to generate NP2-X4+ mice. (B) In situ hybridization showing MRGPRX4 transcripts (magenta) in NP2-X4+ DRG as indicated by arrowheads (left) but not in littermate control NP2-WT (right). NP2 subpopulation accounts for 5% of total DRG neurons. DAPI, blue. Scale bar, 50 μm. […] . Data are expressed as mean ± SEM. *p< 0.05, **p< 0.01 and ***p< 0.001 by two-tailed unpaired Student’s t-test. ns = no statistical significance observed. (D and E) Traces of average (top, depicted as mean ± 95% confidence interval) and individual (bottom, reflected by the heatmap) calcium activity, measured by fluorescence intensity normalized to the baseline intensity (FT/F0) over time of NP2-X4+ (D) and NP2-WT (E) DRG neurons labelled with GCaMP6s (n = 110–150 neurons pooled from 3–7 independent culture vessels from 2–4 mice in each condition). 10 μM phospho-drugs and 1 mM CQ were added as indicated by the arrowheads. Neurons with FT/F0 > 1.5 after compound application were considered a positive responder. NP2-X4+: NP2-MRGPRX4+; DRG, dorsal root ganglia; CQ: chloroquine.
. All the animals used were heterozygous unless otherwise specified. NP2-X4+ and NP2-WT littermates were generated by crossing Mrgpra3-Cre to Rosa26-lsl-MRGPRX4 as detailed previously ([15]). NP2-X4+ mice were further crossed to homozygous Rosa26-lsl-GCaMP6s to obtain NP2-WT/GCaMP6s and NP2-X4+/GCaMP6s animals. A detailed mating strategy is illustrated in fig. S5. Pirt-Cre-GCaMP6s animals were acquired by crossing Pirt-Cre to homozygous Rosa26-lsl-GCaMP6s. Pirt-Cre animals were generated through homologous recombination as indicated previously ([37]). Rosa26-lsl-GCaMP6s mouse line was provided by Dr. Dwight Bergles’ lab at the Johns Hopkins School of Medicine.

[2] = IV, clinical trials; ref New Drug Application: 020450; cited from earlier work
MRGPRX4 WT (S83) = MRGPRX4 WT (S83) (Homo sapiens, UniProt Q96LA9, L83S); test: PRESTO-Tango β-arrestin recruitment assay, HTLA cells stably expressing WT (S83) MRGPRX4; type: cell-based; set-up: expressed in transfected cells; conditions: HTLA::MRGPRX4
Chain of MRGPRX4 WT (S83) (Q96LA9 whole entry L83S, the tested form may be a part): as the sequence (Q96LA9 whole entry L83S) above
Description: HTLA cells, a cell line derived from HEK293 and engineered to stably express a tTA-dependent luciferase reporter and a β-arrestin2-TEV fusion gene, were generously provided by Richard Axel's laboratory. HTLA cells were cultured in growth medium containing 2 μg/ml puromycin and 100 μg/ml hygromycin B in 5% CO2 at 37 °C. Stably MRGPRX4-expressing HTLA cells were generated by transfecting pcDNA3.1(+)-Zeo containing MRGPRX4-Tango construct (either with WT or S83L mutant sequence) into HTLA cells with Lipofectamine 3000 and selecting the successful transfected clones with Zeocin.
HTLA cells stably expressing either WT or S83L MRGPRX4 were seeded in PDL-coated 96-well white clear bottom cell culture plates with DMEM containing 10% FBS, at a density of 35,000 cells per well and were allowed to attach to the bottom of the wells overnight. The next day, growth medium was replaced with 100 μl of serum-free medium containing the tested drugs at various concentrations, and the cells were then incubated at 37°C for 24 h. On the following day, media with drug solutions was removed and 50 μl per well of Bright-Glo™ Reagent from Bright-Glo™ Luciferase Assay System (Promega) was loaded. The plate was incubated at room temperature in the dark for 5 min, and the relative luminescence units were measured using the Flexstation-3 instrument with SoftMax®Pro 7.1 software (Molecular Devices). Dose response curves and EC50s were analyzed as described above.
Data are from at least two independent experiments, each performed in
triplicate, and are depicted as mean ± SEM.
arrestin2-TEV fusion gene and a tTA -dependent luciferase reporter.

Fig. 1D dose-response, calcium response at Concentration (M) (MRGPRX4 (S83); 4.88281e-7 M): -45.834 and -46.962 and -43.233
Fig. 1D dose-response, calcium response at Concentration (M) (MRGPRX4 (S83); 9.76563e-7 M): -42.023 and -51.874 and -41.78
Fig. 1D dose-response, calcium response at Concentration (M) (MRGPRX4 (S83); 1.95313e-6 M): -57.631 and -43.259 and -52.591
Fig. 1D dose-response, calcium response at Concentration (M) (MRGPRX4 (S83); 3.90625e-6 M): -30.902 and -51.949 and -54.701
Fig. 1D dose-response, calcium response at Concentration (M) (MRGPRX4 (S83); 7.8125e-6 M): -36.341 and -24.025 and -23.478
Fig. 1D dose-response, calcium response at Concentration (M) (MRGPRX4 (S83); 1.5625e-5 M): -24.49 and -31.993 and -24.486
Fig. 1D dose-response, calcium response at Concentration (M) (MRGPRX4 (S83); 3.125e-5 M): -42.34 and -14.448 and -21.073
Fig. 1D dose-response, calcium response at Concentration (M) (MRGPRX4 (S83); 6.25e-5 M): -29.178 and -38.728 and -12.364
Fig. 1D dose-response, calcium response at Concentration (M) (MRGPRX4 (S83); 0.00025 M): 21.7467 and 26.6867 and 14.9677
Fig. 1D dose-response, calcium response at Concentration (M) (MRGPRX4 (S83); 0.0005 M): -0.1003 and 34.5457 and 1.141
SMILES: O=C1NC(=O)C(c2ccccc2)(c2ccccc2)N1 [Phenytoin]
calcium mobilization response (Fig. 1D dose-response raw data) (MRGPRX4 (S83); concentration 4.88281e-7 M): -35.967 and -38.387 and -9.249 and -43.815 and -12.548 and -27.242
calcium mobilization response (Fig. 1D dose-response raw data) (MRGPRX4 (S83); concentration 9.76563e-7 M): -3.6717 and 0.5703 and -1.3847 and -25.061 and -39.258 and -5.762
calcium mobilization response (Fig. 1D dose-response raw data) (MRGPRX4 (S83); concentration 1.95313e-6 M): -0.8477 and -0.3367 and -2.8407 and -17.925 and -29.096 and -31.733
calcium mobilization response (Fig. 1D dose-response raw data) (MRGPRX4 (S83); concentration 3.90625e-6 M): -4.2817 and -4.6827 and 7.036 and -45.513 and -21.585 and -2.642
calcium mobilization response (Fig. 1D dose-response raw data) (MRGPRX4 (S83); concentration 7.8125e-6 M): -6.1147 and -5.4597 and 3.666 and -0.809 and -24.700 and -20.368
calcium mobilization response (Fig. 1D dose-response raw data) (MRGPRX4 (S83); concentration 1.5625e-5 M): -2.1987 and 5.167 and -0.3347 and -19.624 and -8.530 and -11.014
calcium mobilization response (Fig. 1D dose-response raw data) (MRGPRX4 (S83); concentration 3.125e-5 M): -5.0347 and -1.5897 and 2.935 and -19.576 and -12.591 and -8.608
calcium mobilization response (Fig. 1D dose-response raw data) (MRGPRX4 (S83); concentration 6.25e-5 M): 13.7733 and 12.6223 and 5.79 and -9.327 and -10.716 and -3.999
calcium mobilization response (Fig. 1D dose-response raw data) (MRGPRX4 (S83); concentration 0.00025 M): 17.3763 and 20.0503 and 26.8243 and 17.981 and 21.189 and 24.656
calcium mobilization response (Fig. 1D dose-response raw data) (MRGPRX4 (S83); concentration 0.0005 M): 40.1453 and 34.4913 and 26.1333 and 33.840 and 5.994 and 28.344
Scratching / itch behavior, NP2-X4+ mice vs WT littermates ([1]; 50 μl 10 mM nape injection, 30 min): no differences in itch behavior were detected
Scratching bouts of individual animals ([1]; NP2-X4+, 30 min after injection of 50 μl 10 mM into the nape, each cell one mouse): 6 and 0 and 19 and 1 (2×) and 14 and 16 and 21 and 12 and 20
Scratching bouts of individual animals (NP2-WT mice): 7 (2×) and 14 and 1 and 11 and 59 and 2 and 5 and 42 and 24
Patients who reported itch [2]: 4.5%
PRESTO-Tango response (fig. S1), single replicate (MRGPRX4 WT (S83); concentration 4.88281e-6 M): 0.1853 and 0.188 and 0.1763 and 0.05734 and 0.2683 and 0.2239
PRESTO-Tango response (fig. S1), single replicate (MRGPRX4 WT (S83); concentration 9.76563e-6 M): 0.2008 and 0.1594 and 0.1746 and 0.2158 and 0.02233 and 0.2967
PRESTO-Tango response (fig. S1), single replicate (MRGPRX4 WT (S83); concentration 1.95313e-5 M): 0.2906 and 0.2732 and 0.1192 and 0.006784 and 0.3171 and 0.3592
PRESTO-Tango response (fig. S1), single replicate (MRGPRX4 WT (S83); concentration 3.90625e-5 M): 0.1519 and 0.183 and 0.2178 and 0.1316 and 0.1884 and 0.2326
PRESTO-Tango response (fig. S1), single replicate (MRGPRX4 WT (S83); concentration 7.8125e-5 M): 0.1378 and 0.1891 and 0.1982 and 0.232 and 0.1107 and 0.1825
PRESTO-Tango response (fig. S1), single replicate (MRGPRX4 WT (S83); concentration 0.0003125 M): 0.1547 and 0.2414 and 0.1479 and 0.03891 and 0.4024 and 0.1026
PRESTO-Tango response (fig. S1), single replicate (MRGPRX4 WT (S83); concentration 0.000625 M): 0.1541 and 0.14 and 0.1288 and 0.1405 and 0.1553 and 0.127
PRESTO-Tango response (fig. S1), single replicate (MRGPRX4 WT (S83); concentration 0.0025 M): 0.1159 and 0.09904 and 0.1083 and 0.002223 and 0.1612 and 0.1598
PRESTO-Tango response (fig. S1), single replicate (MRGPRX4 WT (S83); concentration 0.005 M): 0.112 and 0.09938 and 0.09678 and 0.03875 and 0.1733 and 0.09617
